Experiments:
SD rats = assay: Novelty-induced hypophagia (NIH) test; assay type: in vivo, rat; settings: 1 h before a single 10-min test session
Excerpt: This Example relates to the assessment of the anxiolytic effect of treatment in the stress-induced anxiety model, novelty induced hypophagia. This assay is also sensitive to the rapid acting antidepressants ketamine and GLYX-13 (Li et al., “mTOR-dependent synapse formation underlies the rapid antidepressant effects of NMDA antagonists,” Science 329:959-964, 2010; and Burgdorf et al., 2013). See also Bodnoff et al., “A comparison of the effects of diazepam versus several typical and atypical anti-depressant drugs in an animal model of anxiety,” Psychopharmacology, 97:277-279, 1989.
Testing was conducted as described by (Burgdorf et al., 2013). […] Animals were food deprived overnight before testing, and lab chow was placed in the center chamber of an open field (40×40×20 cm) for 10 min under dim red lighting. Between testing each animal, feces and urine were removed from the apparatus. After NIHI testing, the latency to eat in the animal's home cage was determined as a control to ensure the effect on eating is specific to the novel environment. Animals were videotaped, and latency (sec) for the animal to take the first bite of food was manually scored offline.
A single point per dose group that was 2 or more standard deviations from the mean was considered an outlier and was excluded from the data analysis. […]

Sprague Dawley rats = assay: Porsolt forced swim test; assay type: in vivo, rat; settings: compared to vehicle group
Experimental: A non-clinical in vivo pharmacology study (Porsoit assay) was performed to measure antidepressant-like effects. A negative control (0.5% sodium carboxymethyl cellulose in 0.9% sterile saline vehicle) and a positive control (Compound D) were used to compare against Compound A and Compound B. The study allowed for the construction of a dose-response curve of the effects of each compound on the Porsolt forced swim test as assessed by the rats' response (reduced floating time) during a 5-minute swimming test.
Male 2-3 month old Sprague Dawley rats were used (Harlan, Indianapolis, Ind.). Rats were housed in Lucite cages with aspen wood chip bedding, maintained on a 12:12 light:dark cycle (lights on at 5 AM), and given ad libitum access to Purina lab chow (USA) and tap water throughout the study.
The Porsolt forced swim test adapted for use in rats was performed as described by Burgdorf et al., (The long-lasting antidepressant effects of rapastinel (GLYX-13) are associated with a metaplasticity process in the medial prefrontal cortex and hippocampus. Neuroscience 308:202-211, 2015). […] Animals were videotaped, and floating time as defined as the minimal amount of effort required to keep the animals head above water was scored offline by a blinded experimenter with high inter-rater reliability (Pearson's r>0.9). […]

NMDAR2D = NMDAR2D (Homo sapiens, UniProt O15399+Q05586); assay: Potentiation of [3H]MK-801 binding, NMDAR2D; design: species or system rat; settings: NMDAR2D binding profile, wild-type
Experimental: Assays were conducted as described by Moskal et al., “GLYX-13: a monoclonal antibody-derived peptide that acts as an N-rnethyl-D-aspartate receptor modulator,” Neuropharmacology, 49, 1077-87, 2005. The potentiation of [^3H]MK-801 binding (5 nrM; 22.5 Ci/mmol) to well washed rat cortical membranes (200 μg) was measured under non-equilibrium conditions (15 min @ 25° C.) in the presence of increasing concentrations of Compound A.
Assays were conducted as described above in Example 5, by Moskal et al. (2005).

Sequence of NMDAR2D (O15399 28-1336, species assumed, other chains not shown): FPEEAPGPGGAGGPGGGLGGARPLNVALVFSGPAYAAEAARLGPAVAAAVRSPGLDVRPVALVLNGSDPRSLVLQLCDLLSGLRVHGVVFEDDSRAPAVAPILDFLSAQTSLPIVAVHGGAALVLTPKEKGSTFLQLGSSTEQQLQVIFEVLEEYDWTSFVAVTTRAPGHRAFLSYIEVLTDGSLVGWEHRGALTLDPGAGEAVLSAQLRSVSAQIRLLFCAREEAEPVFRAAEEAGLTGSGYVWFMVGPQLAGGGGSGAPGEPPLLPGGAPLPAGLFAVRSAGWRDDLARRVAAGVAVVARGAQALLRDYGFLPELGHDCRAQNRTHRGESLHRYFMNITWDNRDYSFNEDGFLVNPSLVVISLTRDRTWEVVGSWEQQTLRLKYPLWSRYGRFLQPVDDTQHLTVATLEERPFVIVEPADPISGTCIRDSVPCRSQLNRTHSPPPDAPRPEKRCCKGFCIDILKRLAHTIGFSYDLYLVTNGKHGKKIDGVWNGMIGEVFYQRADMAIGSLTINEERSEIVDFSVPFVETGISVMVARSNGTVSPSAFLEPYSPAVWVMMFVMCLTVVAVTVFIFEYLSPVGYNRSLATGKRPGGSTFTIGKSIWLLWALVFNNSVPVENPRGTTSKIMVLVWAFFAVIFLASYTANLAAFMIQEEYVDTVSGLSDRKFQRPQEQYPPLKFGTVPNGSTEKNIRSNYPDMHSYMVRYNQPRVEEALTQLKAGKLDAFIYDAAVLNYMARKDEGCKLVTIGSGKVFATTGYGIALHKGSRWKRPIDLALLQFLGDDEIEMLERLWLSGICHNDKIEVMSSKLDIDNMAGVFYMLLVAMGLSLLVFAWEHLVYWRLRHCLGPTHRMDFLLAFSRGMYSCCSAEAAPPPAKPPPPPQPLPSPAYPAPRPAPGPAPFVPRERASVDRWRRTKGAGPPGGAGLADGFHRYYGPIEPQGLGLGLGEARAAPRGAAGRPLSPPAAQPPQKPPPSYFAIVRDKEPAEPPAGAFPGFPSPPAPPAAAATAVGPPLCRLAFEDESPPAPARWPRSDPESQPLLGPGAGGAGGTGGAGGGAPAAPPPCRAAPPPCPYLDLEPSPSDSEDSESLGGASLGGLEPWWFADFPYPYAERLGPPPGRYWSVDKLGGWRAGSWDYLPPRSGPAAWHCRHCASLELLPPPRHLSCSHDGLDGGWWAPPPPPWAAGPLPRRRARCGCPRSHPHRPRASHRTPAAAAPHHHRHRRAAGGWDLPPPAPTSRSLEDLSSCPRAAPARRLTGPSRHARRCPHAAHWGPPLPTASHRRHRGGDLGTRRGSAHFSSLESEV

EC50 (NMDAR2D) [nM] | SMILES | latency to eat in the NIH test (anxiolytic effect) (SD rats; 0.0001-1 μg/kg PO) | floating time in the Porsolt test (antidepressant-like effect) (Sprague Dawley rats; 0.1-10 μi/kg PO, 1 hour post-dosing) | latency to eat in the NIH test (anxiolytic effect) (SD rats; 10-1000 μg/kg PO) | floating time in the Porsolt test (antidepressant-like effect) (Sprague Dawley rats; 10-1000 μg/kg PO, 1 h post-dosing)
3.98 | CC(C)CN1CCC[C@@]12CN([C@H](C(N)=O)[C@@H](C)O)C2=O [Compound B, (2S,3R)-3-hydroxy-2-((S)-5-isobutyl-1-oxo-2,5-diazaspiro[3.4]octan-2-yl)butanamide] | produces an anxiolytic effect | produces an antidepressant-like effect |  | 
 | CC(C)CN1CCC[C@]12CN([C@H](C(N)=O)[C@@H](C)O)C2=O [Compound A, (2S,3R)-3-hydroxy-2-((R)-5-isobutyl-1-oxo-2,5-diazaspiro[3.4]octan-2-yl)butanamide] |  |  | produces an anxiolytic effect | produces an antidepressant-like effect

From patent US10196401B2, “Spiro-lactam NMDA receptor modulators and uses thereof” (Aptinyx Inc., priority 2016, dated 2019)
